Consider 20 molecules from patent US10669296B2, “LXR agonists and uses thereof” (Rgenix, Inc., priority 2014, dated 2020).

One assay has as its system ApoE. In words: ApoE gene expression analysis by qRT-PCR in MeWo cancer cells. The class given is cell-based. The note with it: 48 h; for Emax at 1 µM / Emax at 10 µM: read-out: ApoE gene expression in relation to GW3965 at 1 μM (100%). The procedure: Cancer cells (MeWo) were treated in presence of drug or control (DMSO) at indicated concentrations for 48 h. RNA was extracted from whole cell lysates using the Total RNA Purification Kit (17200, Norgen, Thorold, Canada). 600 ng of total RNA was then reverse transcribed into cDNA using the Verso cDNA Synthesis Kit (AB-1453/B, Fisher Scientific). 6 ng of the resulting cDNA was then mixed with SYBR green PCR Master Mix (4309155, Applied Biosystems) and the appropriate primers. Each reaction was performed in quadruplicate, and mRNA expression was quantified by performing real-time PCR amplification using a StepOne Plus Real-Time PCR System (Applied Biosystems). GAPDH was used as an endogenous control for normalization. EC50 values were calculated using Prism6 software and plotting expression values versus drug concentration. The following primers were used: [table] The results are shown in relation to GW3965 ApoE expression at 1 μM (i.e. 100%).
(In qPCR the cycle at which signal appears reflects the starting amount.)

The next assay relates to Cancer cells (MeWo). Nature of the assay: Matrigel invasion assay. It counts as cell-based. The note with it: 1 μM drug, invasion 24 h. The procedure:
Cancer cells (MeWo) were pre-treated in presence of 1 μM drug or control (DMSO) for 72 h after which cancer cells were switched to serum-starvation in 0.2% FBS DMEM-based media for 16 h in the presence of the drug or control, respectively. Trans-well invasion chambers (354480, BD Biosciences, Bedford, Mass.) were pre-equilibrated in DMEM-based media prior to the beginning of the assay by adding 0.5 ml of starvation media to the top and bottom chambers. After 30 min, the media in the top chamber was removed, and 0.5 ml of media containing 1×10^5 cancer cells in the presence of the drug, was added into each matrigel-coated trans-well insert. Cells were allowed to invade through the matrigel-coated inserts for 24 h at 37° C.

For orientation: EC50 means the concentration needed to bring the measured effect to its halfway point. Regarding `O=C(Cc1cccc(OCCCN(Cc2cccc(C(F)(F)F)c2Cl)CC(c2ccccc2)c2ccccc2)c1)NO` [Compound 1, 2-{3-[3-({[2-chloro-3-(trifluoromethyl)phenyl]methyl}(2,2-diphenylethy)amino)propoxy]phenyl}-N-hydroxyacetamide], in the assay on ApoE (Homo sapiens, MeWo), the EC50 is < 1 µM and the Emax at 10 µM was < 40%. Further, the Emax at 1 µM with ApoE (Homo sapiens, MeWo, 1 μM) was > 80%. In the assay on Cancer cells (MeWo), the “% of Cells Migrated Compared to Control” value is given as <95%.

With `C[C@H](CCOc1cc(F)c(CO)c(S(C)(=O)=O)c1)N(Cc1cccc(C(F)(F)F)c1Cl)CC(c1ccccc1)c1ccccc1` [Compound 9, {4-[(3R)-3-({[2-chloro-3-(trifluoromethyl)phenyl]methyl}(2,2-diphenylethyl)amino)butoxy]-2-fluoro-6-methanesulfonylphenyl}methanol], in the assay with ApoE (Homo sapiens, MeWo), the EC50 was < 0.3 µM and the Emax at 10 µM was > 80%. Also, in the assay on ApoE (Homo sapiens, MeWo, 1 μM), the Emax at 1 µM is > 40%. Moreover, the “% of Cells Migrated Compared to Control” value in the assay on Cancer cells (MeWo) was <50%.

Take `CS(=O)(=O)N1CCCC(OCCCN(Cc2cccc(C(F)(F)F)c2Cl)CC(c2ccccc2)c2ccccc2)C1` (stereo not shown) [Compound 29, {[2-chloro-3-(trifluoromethyl)phenyl]methyl}(2,2-diphenylethyl){3-[(1-methanesulfonylpiperidin-3-yl)oxy]propyl}amine]: the “ApoE gene expression in relation to GW3965 at 1 μM (100%)” value in the assay on ApoE (1 μM) was “++ (“++” > 40% induction)”. In the assay on ApoE, the concentration for a half-maximal effect (EC50) was < 0.3 µM. Besides, the Emax at 10 µM in the assay on ApoE (Homo sapiens, MeWo) is > 80%. The “% of Cells Migrated Compared to Control” value in the assay on Cancer cells (MeWo) is <50%.

Take `CS(=O)(=O)c1cc(OCCCN(Cc2cccc(C(F)(F)F)c2Cl)CC(c2ccccc2)C2CCCCC2)cc(F)c1CO` (stereo not shown) [Compound 78, {4-[3-({[2-chloro-3-(trifluoromethyl)phenyl]methyl}(2-cyclohexyl-2-phenylethyl)amino)propoxy]-2-fluoro-6-methanesulfonylphenyl}methanol]: in the assay on ApoE (Homo sapiens, MeWo, 1 μM), the Emax at 1 µM was > 40%.

With `C[C@@H](CN(CCCOc1cc(F)c(CO)c(S(C)(=O)=O)c1)Cc1cccc(C(F)(F)F)c1Cl)c1ccccc1` [Compound 79, {4-[3-({[2-chloro-3-(trifluoromethyl)phenyl]methyl}[(2R)-2-phenylpropyl]amino)propoxy]-2-fluoro-6-methanesulfonylphenyl}methanol], in the assay with ApoE (Homo sapiens, MeWo), the EC50 is < 1 µM and the Emax at 10 µM is > 80%. In addition, in the assay with ApoE (Homo sapiens, MeWo, 1 μM), the Emax at 1 µM was > 80%.

Consider `C[C@H](CN(CCCOc1cc(F)c(CO)c(S(C)(=O)=O)c1)Cc1cccc(C(F)(F)F)c1Cl)c1ccccc1` [Compound 80, {4-[3-({[2-chloro-3-(trifluoromethyl)phenyl]methyl}[(2S)-2-phenylpropyl]amino)propoxy]-2-fluoro-6-methanesulfonylphenyl}methanol], for which, in the assay on ApoE (Homo sapiens, MeWo), the half-maximal effective concentration (EC50) was < 1 µM and the Emax at 10 µM was > 80%. Moreover, the Emax at 1 µM with ApoE (Homo sapiens, MeWo, 1 μM) is > 80%.

Take `CS(=O)(=O)c1cc(OCCCN(CCc2ccccc2)Cc2cccc(C(F)(F)F)c2Cl)cc(F)c1CO` [Compound 81, {4-[3-({[2-chloro-3-(trifluoromethyl)phenyl]methyl}(2-phenylethyl)amino)propoxy]-2-fluoro-6-methanesulfonylphenyl}methanol]: in the assay with ApoE (Homo sapiens, MeWo), the EC50 is < 0.3 µM and the Emax at 10 µM was > 40%. Also, the Emax at 1 µM in the assay with ApoE (Homo sapiens, MeWo, 1 μM) is > 40%.

Regarding `CC(C)(CN(CCCOc1cc(F)c(CO)c(S(C)(=O)=O)c1)Cc1cccc(C(F)(F)F)c1Cl)c1ccccc1` [Compound 82, {4-[3-({[2-chloro-3-(trifluoromethyl)phenyl]methyl}(2-methyl-2-phenylpropyl)amino)propoxy]-2-fluoro-6-methanesulfonylphenyl}methanol], the Emax at 1 µM in the assay with ApoE (Homo sapiens, MeWo, 1 μM) was > 40%.

Turning to `CS(=O)(=O)c1cc(OCCCN(Cc2ccccc2)Cc2cccc(C(F)(F)F)c2Cl)cc(F)c1CO` [Compound 83, (4-{3-[benzyl({[2-chloro-3-(trifluoromethyl)phenyl]methyl})amino]propoxy}-2-fluoro-6-methanesulfonylphenyl) methanol], the EC50 in the assay on ApoE (Homo sapiens, MeWo) is < 1 µM. Also, the Emax at 1 µM in the assay with ApoE (Homo sapiens, MeWo, 1 μM) is > 80%.

Regarding `[2H]C([2H])(O)c1c(F)cc(OCCCN(Cc2cccc(C(F)(F)F)c2Cl)CC(c2ccccc2)c2ccccc2)cc1S(C)(=O)=O` [Compound 84, {4-[3-({[2-chloro-3-(trifluoromethyl)phenyl]methyl}(2,2-diphenylethyl)amino)propoxy]-2-fluoro-6-methanesulfonylphenyl}(^2H2)methanol], the Emax at 1 µM in the assay on ApoE (Homo sapiens, MeWo, 1 μM) was > 40%. Besides, in the assay with ApoE (Homo sapiens, MeWo), the Emax at 10 µM was > 40%.

For the molecule `CC(O)c1c(F)cc(OCCCN(Cc2cccc(C(F)(F)F)c2Cl)CC(c2ccccc2)c2ccccc2)cc1S(C)(=O)=O` (stereo not shown) [Compound 85, 1-{4-[3-({[2-chloro-3-(trifluoromethyl)phenyl]methyl}(2,2-diphenylethyl)amino)propoxy]-2-fluoro-6-methanesulfonylphenyl}ethan-1-ol], the concentration for a half-maximal effect (EC50) in the assay on ApoE (Homo sapiens, MeWo) was < 1 µM. In addition, the Emax at 1 µM in the assay on ApoE (Homo sapiens, MeWo, 1 μM) was > 80%.

As to `CC(=O)c1c(F)cc(OCCCN(Cc2cccc(C(F)(F)F)c2Cl)CC(c2ccccc2)c2ccccc2)cc1S(C)(=O)=O` [Compound 87, 1-{4-[3-({[2-chloro-3-(trifluoromethyl)phenyl]methyl}(2,2-diphenylethyl)amino)propoxy]-2-fluoro-6-methanesulfonylphenyl}ethan-1-one], the Emax at 1 µM in the assay on ApoE (Homo sapiens, MeWo, 1 μM) was > 40%.

As for `CS(=O)(=O)c1cc(OCCCN(Cc2cccc(C(F)(F)F)c2Cl)CC(c2ccccc2)c2ccccc2)cc(F)c1CN` [Compound 88, {4-[3-({[2-chloro-3-(trifluoromethyl)phenyl]methyl}(2,2-diphenylethyl)amino)propoxy]-2-fluoro-6-methanesulfonylphenyl}methanamine], in the assay with ApoE (Homo sapiens, MeWo, 1 μM), the Emax at 1 µM was > 80%.

Consider `CC(=O)NCc1c(F)cc(OCCCN(Cc2cccc(C(F)(F)F)c2Cl)CC(c2ccccc2)c2ccccc2)cc1S(C)(=O)=O` [Compound 89, N-({4-[3-({[2-chloro-3-(trifluoromethyl)phenyl]methyl}(2,2-diphenylethyl)amino)propoxy]-2-fluoro-6-methanesulfonylphenyl}methyl)acetamide], for which, in the assay with ApoE (Homo sapiens, MeWo), the EC50 is < 1 µM and the Emax at 10 µM is > 80%. Moreover, in the assay on ApoE (Homo sapiens, MeWo, 1 μM), the Emax at 1 µM was > 80%.

For `CS(=O)(=O)c1cc(OCCCN(Cc2cccc(C(F)(F)F)c2Cl)CC(c2ccccc2)c2ccccc2)cc(F)c1C(N)=O` [Compound 90, 4-[3-({[2-chloro-3-(trifluoromethyl)phenyl]methyl}(2,2-diphenylethyl)amino)-propoxy]-2-fluoro-6-methanesulfonylbenzamide], in the assay on ApoE (Homo sapiens, MeWo), the EC50 is < 1 µM. For the same molecule, in the assay with ApoE (Homo sapiens, MeWo, 1 μM), the Emax at 1 µM is > 80%.

Take `CS(=O)(=O)c1cc(OCCCN(Cc2cccc(C(F)(F)F)c2Cl)CC(c2ccccc2)c2ccccc2)cc(F)c1CCO` [Compound 91, 2-{4-[3-({[2-chloro-3-(trifluoromethyl)phenyl]methyl}(2,2-diphenylethyl)amino)propoxy]-2-fluoro-6-methanesulfonylphenyl} ethan-1-ol]: the Emax at 1 µM with ApoE (Homo sapiens, MeWo, 1 μM) is > 80%. Moreover, the Emax at 10 µM in the assay with ApoE (Homo sapiens, MeWo) was > 40%.

Regarding `CNC(=O)c1c(F)cc(OCCCN(Cc2cccc(C(F)(F)F)c2Cl)CC(c2ccccc2)c2ccccc2)cc1S(C)(=O)=O` [Compound 92, 4-[3-({[2-chloro-3-(trifluoromethyl)phenyl]methyl}(2,2-diphenylethyl)amino)-propoxy]-2-fluoro-6-methanesulfonyl-N-methylbenzamide], in the assay with ApoE (Homo sapiens, MeWo, 1 μM), the Emax at 1 µM was > 40%.

For `CS(=O)(=O)c1cc(OCCCN(Cc2cccc(C(F)(F)F)c2Cl)CC(c2ccccc2)c2ccccc2)cc(F)c1C(=O)C(F)(F)F` [Compound 93, 1-{4-[3-({[2-chloro-3-(trifluoromethyl)phenyl]methyl}(2,2-diphenylethyl)amino)propoxy]-2-fluoro-6-methanesulfonylphenyl}-2,2,2-trifluoroethan-1-one], in the assay on ApoE (Homo sapiens, MeWo, 1 μM), the Emax at 1 µM was < 40%. The Emax at 10 µM in the assay on ApoE (Homo sapiens, MeWo) is < 40%.

For `CS(=O)(=O)c1cc(OCCCN(Cc2cccc(C(F)(F)F)c2Cl)CC(c2ccccc2)c2ccccc2)cc(F)c1C(O)C(F)(F)F` (stereo not shown) [Compound 95, 1-{4-[3-({[2-chloro-3-(trifluoromethyl)phenyl]methyl}(2,2-diphenylethyl)amino)propoxy]-2-fluoro-6-methanesulfonylphenyl}-2,2,2-trifluoroethan-1-ol], in the assay on ApoE (Homo sapiens, MeWo, 1 μM), the Emax at 1 µM is > 40%.

Regarding `CN(C)C(=O)c1c(F)cc(OCCCN(Cc2cccc(C(F)(F)F)c2Cl)CC(c2ccccc2)c2ccccc2)cc1S(C)(=O)=O` [Compound 96, 4-[3-({[2-chloro-3-(trifluoromethyl)phenyl]methyl}(2,2-diphenylethyl)amino)propoxy]-2-fluoro-6-methanesulfonyl-N,N-dimethylbenzamide], the Emax at 1 µM with ApoE (Homo sapiens, MeWo, 1 μM) is > 40%.
